Assay results from patent US11866460B2 (priority 2015, dated 2024).
Converted amounts (≈) assume the structure as drawn. “And” between values parts separate entries of the source, which are not always exact repeats. Equal entries are not always repeated. Where two headings read alike, the source gives them in different places. Where a SMILES comes first, the peptide text is derived from it. Where no end group is shown, it is not given here.

Experiments:
[1] = tested on: human PBMCs
[2] = tested on: HIV-1US/92/727; settings: human PBMCs
[3] = tested on: HSV-1; assay: microbe, parasite or virus in culture; settings: Human alphaherpesvirus 1, Vero
[4] = tested on: Propionibacterium acnes; assay: microbe, parasite or virus in culture; type: cell-based; settings: Cutibacterium acnes, 48 h
[5] = tested on: Clostridium difficile; assay: microbe, parasite or virus in culture; type: cell-based; settings: Clostridioides difficile, 48 h
[6] = tested on: Haemophilus influenzae; assay: microbe, parasite or virus in culture; type: cell-based
[7] = tested on: ZIKV FSS 13025; settings: read-out: IC50 (PRNT50), plaque reduction; Vero cells, day 4
[8] = tested on: ZIKV FSS 13025; settings: read-out: IC50, yield reduction; Vero cells, day 3
[9] = in vitro; settings: African green monkey, CC50
[10] = tested on: HIV-1RF; type: cell-based
[11] = tested on: Caco-2 cells
[12] = tested on: ME180 cells
[13] = tested on: HEC1A cells
[14] = tested on: Ca Ski cells
[15] = tested on: Lactobacillus acidophilus
[16] = tested on: Enterococcus faecalis (VSE)
[17] = tested on: aerobic Gram-positive bacterial isolates (S. aureus, enterococci, streptococci, and B. anthracis)
[18] = tested on: Ebola virus (EBOV)
[19] = tested on: Streptococcus pneumoniae (PRSP)
[20] = tested on: Bacillus anthracis Sterne
[21] = in vitro; settings: Lactobacillus crispatus
[22] = tested on: panel of enveloped viruses (DENV, JEV, YFV, CHIKV and others); settings: panel of enveloped viruses (, JEV, YFV, CHIKV and others)
[23] = tested on: Streptococcus pyogenes
[24] = tested on: Lactobacillus crispatus
[25] = tested on: Lactobacillus jensenii
[26] = tested on: Streptococcus agalactiae
[27] = in vitro; settings: Lactobacillus acidophilus
[28] = tested on: Vero cells, erythrocyte, epithelial and endometrial cell lines
[29] = tested on: CHIKV 181/25; settings: 0 h
[30] = tested on: Marburg virus (MARV)
[31] = tested on: Staphylococcus aureus (MSSA)
[32] = tested on: human erythrocyte cells
[33] = tested on: Vero cells; settings: African green monkey
[34] = in vitro; settings: Lactobacillus jensenii
[35] = in vitro; settings: human, TC50
[36] = tested on: Enterococcus faecalis (VRE)
[37] = tested on: DENV-1 PRS41393; settings: -1 PRS41393, 0 h
[38] = in vitro; settings: dog
[39] = tested on: Streptococcus pneumoniae (PSSP)
[40] = tested on: VACV NYCBH; settings: 0 h
[41] = tested on: JUNV Candid #1; settings: 0 h
[42] = tested on: VEEV TC-83; settings: 0 h
[43] = tested on: Enterococcus faecium (VRE)
[44] = tested on: Streptococcus salivarius
[45] = 0.01 μg/mL during exposure, Day 3
[46] = 0.01 μg/mL during exposure, Day 6
[47] = 0.1 μg/mL during exposure, Day 3
[48] = 0.1 μg/mL during exposure, Day 6
[49] = 10 μg/mL during exposure, Day 3
[50] = 10 μg/mL during exposure, Day 6
[51] = 100 μg/mL during exposure, Day 3
[52] = 100 μg/mL during exposure, Day 6
[53] = 1000 μg/mL during exposure, Day 3
[54] = 1000 μg/mL during exposure, Day 6

Cc1cn([C@H]2C[C@H](N=[N+]=[N-])[C@@H](CO)O2)c(=O)[nH]c1=O [AZT]
CC50 [1]: > 1000 nM
TI (TC50/EC50) [2]: >342.5
EC50 ([2]; 7 days): 2.9 nM and 2.92 nM

Nc1nc2c(ncn2COCCO)c(=O)[nH]1 [Acyclovir]
EC50 [3]: 2820 nM

CCC[C@@H]1C[C@@H](C(=O)N[C@@H]([C@H]2O[C@H](SC)[C@H](O)[C@@H](O)[C@H]2O)[C@H](C)Cl)N(C)C1 [Clindamycin]
MIC [4]: ≤ 0.06 µg/mL
MIC [5]: 1 µg/mL (≈ 2.35 µM)
MIC [6]: 4 µg/mL (≈ 9.41 µM)

CC(C)C[C@@H](NC(=O)[C@@H](CCCCN)NC(=O)[C@@H](CO)NC(=O)[C@@H](CCC(N)=O)NC(=O)[C@@H](CC(C)C)NC(=O)[C@@H](Cc1c[nH]c2ccccc12)NC(=O)[C@H](NC(=O)[C@@H](Cc1c[nH]c2ccccc12)NC(=O)[C@H](NC(=O)[C@@H](CC(=O)O)NC(=O)[C@@H](CCCNC(=N)N)NC(=O)[C@@H](CC(C)C)NC(=O)[C@@H](Cc1c[nH]c2ccccc12)NC(=O)[C@@H](CO)NC(=O)CNC(=O)[C@H](N)CO)C(C)C)[C@H](C)O)C(=O)O [TSG001 D-isomer] (HELM PEPTIDE1{[dS].G.[dS].[dW].[dL].[dR].[dD].[dV].[dW].[dT].[dW].[dL].[dQ].[dS].[dK].[dL]}$$$$V2.0; N-terminus and C-terminus assumed)
IC50 [7]: 490 nM
IC50 [8]: 646 nM
CC50 [9]: 11600 nM

Nonoxynol-9 [Nonoxynol 9]
Log Reduction in Virus Titer [10, 45]: 0.3 log
TCID50 Sample - Virus [10, 45]: 5
Log Reduction in Virus Titer [10, 46]: 0.5 log
TCID50 Sample - Virus [10, 46]: 6
Log Reduction in Virus Titer [10, 47]: 0.3 log
TCID50 Sample - Virus [10, 47]: 5
Log Reduction in Virus Titer [10, 48]: 0.7 log
TCID50 Sample - Virus [10, 48]: 5.8
Log Reduction in Virus Titer ([10]; 1 μg/mL during exposure, Day 3): 0.3 log
TCID50 Sample - Virus ([10]; 1 μg/mL during exposure, Day 3): 5
Log Reduction in Virus Titer ([10]; 1 μg/mL during exposure, Day 6): 0 log
TCID50 Sample - Virus ([10]; 1 μg/mL during exposure, Day 6): ≥6.6
Log Reduction in Virus Titer [10, 49]: 0 log
TCID50 Sample - Virus [10, 49]: 5.3
Log Reduction in Virus Titer [10, 50]: 0 log
TCID50 Sample - Virus [10, 50]: ≥6.6
Log Reduction in Virus Titer [10, 51]: ≥3.3 log
TCID50 Sample - Virus [10, 51]: ≤2.0
Log Reduction in Virus Titer [10, 52]: 2.9 log
TCID50 Sample - Virus [10, 52]: 3.6
Log Reduction in Virus Titer [10, 53]: ≥2.8 log
TCID50 Sample - Virus [10, 53]: ≤2.5
Log Reduction in Virus Titer [10, 54]: ≥2.7 log
TCID50 Sample - Virus [10, 54]: ≤3.8
TC50 [11]: 55.1 µg/mL
TC50 [12]: 74.0 µg/mL
TC50 [13]: 62.9 µg/mL
TC50 [14]: 61.3 µg/mL

SGSWLRDVWTWLQSKL [TSG001]
TC50 [15]: non-toxic
MIC [16]: 2 µM
MICs, range over isolates [17]: 2 to 16 µg/mL
EC50 [18]: 934 nM
MIC [19]: 8 µM
MIC [20]: 1 µM
CC50 [21]: > 50000 nM
EC50 [22]: < 3000 nM
CC50 ([12]; human): 37000 nM
MIC [23]: 4 µM
TC50 [24]: non-toxic
TC50 [25]: non-toxic
TI (TC50/EC50) [2]: 8.93
MIC [26]: 8 µM
CC50 [27]: > 50000 nM
cytotoxicity [28]: minimal cytotoxicity
EC50 [29]: 2240 nM
EC50 [30]: 637 nM
MIC [31]: 2 µM
MHC [32]: 50 µM
CC50 [33]: 153000 nM
CC50 [34]: > 50000 nM
CC50 [35]: 37000 nM
MIC [36]: 4 µM
EC50 [37]: 3420 nM
CC50 [38]: > 200000 nM
MIC [39]: 8 µM
EC50 [40]: > 12500 nM
EC50 [41]: > 75000 nM
EC50 [42]: > 12500 nM
MIC [43]: 2 µM
MIC [44]: 4 µM
